Read-outs that look alike come from different tables or passages of the source.

Data set [1] is described as follows: CellTox Green Cytotoxicity Assay in uninfected CRFK cells. Particulars: cat (feline), 72 hour incubation. Type of data set: cell-based. The procedure: Compound 1 was screened for cytotoxicity in uninfected CRFK cells using a commercially available CellTox Green Cytotoxicity Assay (Promega). The assayed was performed in a 96 well place formate using serial dilution of Compound 1 in sextuplicate. Compound concentration associated with 50% cytotoxicity (CC50) following 72 hour incubation was calculated by regression analysis.

A further data set deals with feline coronavirus. Nature of the data set: In vitro antiviral assay: virus-induced cytopathic effect in CRFK cells (crystal violet staining). It is filed as cell-based. The procedure: Compound 1 was screened for activity against feline Coronaviruses in an in vitro assay. Serial dilutions of Compound 1 were mixed with 2.5×10^4 copies of feline coronavirus and added in sextuplicate to 96 well plates with pre-seeded CRFK cells. The plates were incubated for 72 hours followed by a staining of the cell culture monolayers with crystal violet. The level of virus-induced cytopathic effect was quantified visually and using a plate reader. Positive control wells comprised the virus without Compound 1. Negative control wells lacked both virus and Compound 1. The EC50 was calculated by regression analysis.
(In general: Cytopathic effects are the visible damage that an infection or toxin causes in cultured cells.)

In general, CC50 refers to the concentration at which the toxic effect on the cells reaches its halfway point. For orientation: EC50 means the concentration at which the effect is half-maximal. As to `N#C[C@@]1(c2ccc3c(N)ncnn23)O[C@H](CO)[C@@H](O)[C@H]1O` [Compound 1, (2R,3R,4S,5R)-2-(4-aminopyrrolo[2,1-f][1,2,4]triazin-7-yl)-3,4-dihydroxy-5-(hydroxymethyl)tetrahydrofuran-2-carbonitrile], the CC50 at 72 h in data set [1] is > 100000 nM. In addition, the EC50 with feline coronavirus (Alphacoronavirus 1, CRFK, read-out: EC50 (FIG. 1 legend)) was 750 nM; with feline coronavirus (Alphacoronavirus 1, feline coronavirus in CRFK cells, 72 hours incubation, regression analysis (Table 1), read-out: EC50) it was 770 nM. In the data set on feline coronavirus (CRFK cells, at 3, 2 and 1 μM, FIG. 1), the “inhibition of feline coronavirus” value is on record as ~100%.

Values taken from patent US11260070B2, “Methods of treating feline coronavirus infections” (GILEAD SCIENCES, INC., priority 2017, dated 2022).
